The values below come from patent US20230149409A1, “TREATMENT OF HUMAN PAPILLOMAVIRUS-ASSOCIATED CANCERS BY PD-L1 INHIBITORS” (priority 2021, published 2023).

The target of test [1] is T1, PD-⅟PD-L1 (recombinant human PD-L1 protein and human PD-1 protein) (Homo sapiens, UniProt Q9NZQ7).
T1 construct: Recombinant human PD-L1 protein (19-238) with a His-tag at the C-terminus; purchased AcroBiosystems PD1-H5229 (PD-L1); PD1-H5257 (PD-1)
The test is described as follows: Homogeneous Time-Resolved Fluorescence (HTRF) PD-1/PD-L1 binding assay. The following applies: 3 nM PD1, 10 nM PD-L1, 25° C., PBS pH 7.4. The protocol:
Homogeneous Time-Resolved Fluorescence (HTRF) PD-⅟PD-L1 Binding Assay
The assays were conducted in a standard black 384-well polystyrene plate with a final volume of 20 uL. Inhibitors were first serially diluted in DMSO and then added to the plate wells before the addition of other reaction components. The final concentration of DMSO in the assay was 1%. The assays were carried out at 25° C. in the PBS buffer (pH 7.4) with 0.05% Tween-20 and 0.1% BSA. […] PD-L1 and PD-1 proteins were diluted in the assay buffer and 10 uL was added to the plate well. Plates were centrifuged and proteins were preincubated with inhibitors for 40 minutes. The incubation was followed by the addition of 10 uL of HTRF detection buffer supplemented with Europium cryptate-labeled anti-human IgG (PerkinElmer-AD0212) specific for Fc and anti-His antibody conjugated to SureLight®-Allophycocyanin (APC, PerkinElmer-AD0059H). […] Final concentrations in the assay were - 3 nM PD1, 10 nM PD-L1, 1 nM europium anti-human IgG and 20 nM anti-His-Allophycocyanin. IC50 determination was performed by fitting the curve of percent control activity versus the log of the inhibitor concentration using the GraphPad Prism 5.0 software.
Background: TR-FRET usually uses a lanthanide donor and a delayed reading to cut background.

The test system of test [2] is PD-L1 (U2OS/PD-L1 cells, Jurkat-PD-1-SHP cells). The test is described as follows: Src Homology Region 2 Domain-containing Phosphatase (SHP) assay. Particulars: Homo sapiens; U2OS/PD-L1 + Jurkat-PD-1-SHP cells, 2 hours. Type of test: cell-based. On the procedure: Example 1B. Src Homology Region 2 Domain-containing Phosphatase (SHP) Assay
U2OS/PD-L1 cells (DiscoveRx Corporation) were maintained in McCoy’s 5A medium with addition of 10% FBS, 0.25 µg/mL Puromycin. After removing the culture media, the cell medium was replaced with assay medium (RPMI1640 medium with 1% FBS). The U2OS/PD-L1 cells were then added in 384-well black clear bottom assay plate (CELLCOAT® Tissue Culture Plates, Greiner Bio-One) at 5000 cells per well in 20 uL assay medium. Test compounds were prepared by serial dilution in DMSO and 125 nL compound were first transferred to the 384 REMP plate well (Thermofisher) by ECHO liquid handler (Labcyte) followed with addition of 27.5 uL assay medium. 5 µL/well compounds in the assay medium were transferred to the cell plate with 0.05% DMSO in the final assay at 0.25 µM. Jurkat-PD-1-SHP cells (DiscoveRx Corporation) were cultured in RPMI1640 medium supplemented with 10% FBS, 250 µg/mL Hygromycin B, 500 µg/mL G418. After the replacement of culture media with assay medium, 5,000 Jurkat-PD-1-SHP cells in 20 µL were dispensed into each well. The assay plate was incubated at 37° C., 5% CO2 for 2 hours before 2.5 uL PathHunter reagent 1 (DiscoveRx Corporation) were added to each well. The assay plate was shaken for 1 min at 350 rpm in the dark followed with addition of 10 uL PathHunter reagent 2 (DiscoveRx Corporation). Chemiluminescent signal was recorded with TopCount reader (Perkin Elmer) after incubation at room temperature for 1 hour. Wells with DMSO were served as the positive controls and wells containing no cells were used as negative controls. IC50 determination was performed by fitting the curve of percentage of control activity versus the log of the compound concentration using the GraphPad Prism 6.0 software.

The test system of test [3] is PD-L1 (PD-L1 aAPC/CHO-K1 cells, Jurkat-PD-1-NFAT effector cells). The test is described as follows: Nuclear Factor of Activated T-cells (NFAT) assay. Type of test: cell-based. The following applies: Cricetulus griseus; PD-L1 aAPC/CHO-K1 + Jurkat-PD-1-NFAT cells, 24 hours. The protocol:
Nuclear Factor of Activated T-cells (NFAT) Assay
PD-L1 aAPC/CHO-K1cells (Promega) were maintained in F-12 medium with addition of 10% FBS, 200 µg/mL Hygromycin B, 250 µg/mL Geneticin (G418). […] The culture media of PD-L1 aAPC/CHO-K1 cells were first replaced with assay medium (RPMI1640 medium with 1% FBS). The PD-L1 aAPC/CHO-K1cells were then added in a white 384-well white clear bottom assay plate (CELLCOAT® Tissue Culture Plates, Greiner Bio-One) at 8000 per well in 10 uL assay medium. […] 5 uL compounds in the assay medium were transferred to the cells with 0.4% DMSO in the final assay at 2 µM. After removing the culture media, 10,000 Jurkat-PD-1-NFAT effector cells in 5 µL assay medium was dispensed into each well. The assay plate was incubated at 37° C., 5% CO2 for 24 hours. […] After 8 minutes incubation at room temperature, luminescence was read at with Pherastar microplate reader (BMG Labtech). The fold of induction (FOI) was calculated based on the ratio of luminescence normalized to the DMSO wells within each assay plate. The maximum percentage of induction was reported based on the ratio between the highest FOI of each compound and the maximum FOI of control compound within each assay plate. Wells with DMSO were served as the negative controls and wells containing control compound with the highest FOI were used as positive controls. EC50 determination was performed by fitting the curve of percent control activity versus the log of the compound concentration using the GraphPad Prism 6.0 software.

The target in test [4] is T2, PD-L1 on CD14+ cells in human whole blood (Homo sapiens, UniProt Q9NZQ7).
T2 construct: Cells were gated on CD14+ (BD Biosciences) and PD-L1 expression determined by mean fluorescence intensity; host or cells: CD14+ cells in normal human whole blood, stimulated with human interferon gamma
T2 sequence (Q9NZQ7 19-290): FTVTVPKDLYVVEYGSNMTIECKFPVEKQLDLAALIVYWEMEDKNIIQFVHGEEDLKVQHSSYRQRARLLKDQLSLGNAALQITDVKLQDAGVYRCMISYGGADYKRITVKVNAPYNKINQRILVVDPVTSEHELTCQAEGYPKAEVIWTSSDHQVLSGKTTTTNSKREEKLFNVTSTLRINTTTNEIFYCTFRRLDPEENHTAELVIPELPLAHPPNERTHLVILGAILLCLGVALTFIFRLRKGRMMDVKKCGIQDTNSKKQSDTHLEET
The test is described as follows: PD-L1 whole blood internalization assay. Type of test: cell-based. Particulars: 1 ng/mL interferon γ, CD14+ gated, 24 hour. The protocol:
PD-L1 Whole Blood Internalization Assay
To determine PD-L1 internalization in human whole blood, normal human blood (Biological Specialty Corp, Colmar. PA) was incubated in the presence or absence of a concentration range of test compounds and 1 ng/mL human interferon γ (R&D Systems Inc. Minn. MN) in a 96 well “2 mL Assay Block” (Corning, Corning NY) for 18-20 hours at 37 °C. Blood was then stained with PD-L1 (MIH1, eBioscience; or BD Biosciences San Jose, CA), CD14 (Life Technologies, Carlsbad, CA) for 30 minutes in the dark at room temperature. Whole Blood/red cells were lysed/fixed (lysis buffer BD Biosciences) for 5 minutes at 37 °C in the dark and then centrifuged at 1600 RPM for 5 minutes. Cells were resuspended in Stain Buffer (BD Bioscience, San Jose, CA) and transferred into 96 well round bottom plates (Coming). Cells were gated on CD14+ (BD Biosciences) and PD-L1 expression determined by mean fluorescence intensity (MFI) (BD LSRFortessa® X-20). IC50 determination was performed by fitting the curve of compound percent inhibition versus the log of the compound concentration using the GraphPad Prism 7.0 software.

T1 sequence (Q9NZQ7 19-238): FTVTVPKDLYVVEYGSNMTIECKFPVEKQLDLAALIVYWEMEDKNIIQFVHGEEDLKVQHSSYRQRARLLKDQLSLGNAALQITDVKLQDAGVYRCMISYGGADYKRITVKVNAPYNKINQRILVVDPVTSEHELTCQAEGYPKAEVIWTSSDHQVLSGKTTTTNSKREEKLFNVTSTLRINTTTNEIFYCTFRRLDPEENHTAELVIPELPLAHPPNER

For `Cc1c(NC(=O)c2nc3c(n2C)CCN(C)C3)cccc1-c1cccc(NC(=O)c2nc3c(n2C)CCN(C[C@H]2CC[C@@H](C(=O)O)CC2)C3)c1Cl` [Compound 18, cis-4-((2-((2-chloro-3′-(1,5-dimethyl-4,5,6,7-tetrahydro-1H-imidazo[4,5-c]pyfidine-2-caiboxamido)-2′-methyl-[1,1′-biphenyl]-3-yl)carbamoyl)-1-methyl-1,4,6,7-tetrahydro-5H-imidazo[4,5-c]pyridin-5-yl)methyl)cyclohexane-1-carboxylic acid], the IC50 in test [1] was less than 10 nM; in test [2], less than 10 nM; in test [4], less than 100 nM. In addition, in test [3], the EC50 was less than 100 nM.

For `CN1CCc2c(nc(C(=O)Nc3cccc(-c4cccc(NC(=O)c5nc6c(n5C)CCN(CC[C@H]5CC[C@H](C(=O)O)CC5)C6)c4C#N)c3Cl)n2C)C1` [Compound 19, trans-4-(2-(2-((2′-chloro-2-cyano-3′-(1,5-dimethyl-4,5,6,7-tetrahydro-1H-imidazo[4,5-c]pyridine-2-carboxamido)-[1,1′-biphenyl]-3yl)carbamoyl)-1-methyl-1,4,6,7-tetrahydro-5H-imidazo[4,5-c]pyridin-5-yl)ethyl)cyclohexane-1-carboxylic acid], the IC50 was less than 10 nM in test [1], less than 10 nM in test [2] and less than 100 nM in test [4]. For the same molecule, the EC50 in test [3] is less than 100 nM.

As for `CCN(C)CC(=O)N1Cc2nc(-c3cccc(-c4cccc(NC(=O)c5nc6c(n5C)CCN(C[C@H]5CC[C@H](C(=O)O)CC5)C6)c4Cl)c3C)sc2C1` [Compound 20, trans-4-((2-(2-chloro-3′-(5-(2-(ethyl(methyl)amino)acetyl)-5,6-dihydro-4H-pyrrolo[3,4-d]thiazol-2-yl)-2′-methylbipheiryl-3-ylcarbamoyl)-1-methyl-6,7-dihydro-1H-imidazo [4,5-c]pyridin-5 (4H)-yl)methyl)cyclohexane-1-carboxylic acid], the half-inhibitory concentration (IC50) was less than 10 nM in test [1], less than 10 nM in test [2] and less than 500 nM in test [4]. For the same molecule, the EC50 in test [3] is less than 500 nM.

Consider `CCN(C)CC(=O)N1Cc2nc(-c3cccc(-c4cccc(NC(=O)c5nc6c(n5C)CCN(C[C@H]5CC[C@@H](C(=O)O)CC5)C6)c4Cl)c3C)sc2C1` [Compound 21, cis-4-((2-(2-chloro-3′-(5-(2-(ethyl(methyl)amino)acetyl)-5,6-dihydro-4H-pyrrolo[3,4-d]thiazol-2-yl)-2′-methylbiphenyl-3-ylcarbamoyl)-1-methyl-6,7-dihydro-1H-imidazo [4,5-c]pyridin-5 (4H)-yl)methyl)cyclohexane-1-carboxylic acid], for which the IC50 in test [1] was less than 10 nM; in test [2], less than 10 nM; in test [4], less than 100 nM. Also, the EC50 in test [3] is less than 100 nM.

Take `CCN(C)CC(=O)N1Cc2nc(-c3cccc(-c4cccc(NC(=O)c5nc6c(n5C)CCN(CCC5CCC(C(=O)O)CC5)C6)c4Cl)c3C)sc2C1` (centres unmarked) [Compound 22, 4-(2-(2-(2-chloro-3′-(5-(2-(ethyl(methyl)amino)acetyl)-5,6-dihydro-4H-pyrrolo[3,4-d]thiazol-2-yl)-2′-methylbiphenyl-3-ylcarbamoyl)-1-methyl-6,7-dihydro-1H-imidazo[4,5-c]pyridin-5(4H)-yl)ethyl)cyclohexane-1-carboxylic acid]: the IC50 in test [1] is less than 10 nM; in test [2], less than 10 nM; in test [4], less than 500 nM. In test [3], the EC50 was less than 100 nM.

Regarding `Cc1c(-c2nc3c(s2)CN(C(=O)CN(C)C(C)C)C3)cccc1-c1cccc(NC(=O)c2nc3c(n2C)CCN(CCC2CCC(C(=O)O)CC2)C3)c1Cl` (centres unmarked) [Compound 23, 4-(2-(2-(2-chloro-3′-(5-(2-(isopropyl(methyl)amino)acetyl)-5,6-dihydro-4H-pyrrolo[3,4-d]thiazol-2-yl)-2′-methylbiphenyl-3-ylcarbamoyl)-1-methyl-6,7-dihydro-1H-imidazo[4,5-c]pyridin-5(4H)-yl)ethyl)cyclohexane-1-carboxylic acid], the results for the half-maximal inhibitory concentration (IC50) in test [1], in test [2] and in test [4] were less than 10 nM, less than 10 nM and less than 100 nM, respectively. Also, the EC50 in test [3] was less than 100 nM.

For the molecule `C[C@@H](O)CN1CCc2c(nc(C(=O)Nc3cccc(-c4cccc(NC(=O)c5nc6c(n5C)CCN(CCC57CCC(C(=O)O)(CC5)C7)C6)c4Cl)c3Cl)n2C)C1` [Compound 29], the IC50 in test [1] was less than 10 nM; in test [2] it was less than 10 nM; in test [4], less than 100 nM. The EC50 in test [3] was less than 10 nM.

Take `Cn1c(C(=O)Nc2cccc(-c3cccc(NC(=O)c4nc5c(n4C)CCN(CC46CCC(C(=O)O)(CC4)C6)C5)c3Cl)c2Cl)nc2c1CCN(CCC13CCC(C(=O)O)(CC1)C3)C2` [Compound 31, 4-((2-((3′-(5-(2-(4-carboxybicyclo[2.2.1]heptan-1-yl)ethyl)-1-methyl-4,5,6,7-tetrahydro-1H-imidazo[4,5-c]pyridine-2-carboxamido)-2,2′-dichloro-[1,1′-biphenyl]-3-yl)carbamoyl)-1-methyl-1,4,6,7-tetrahydro-5H-imidazo[4,5-c]pyridin-5-yl)methyl)bicyclo[2.2.1]heptane-1-carboxylic acid]: the IC50 in test [1] is less than 10 nM; in test [2], less than 10 nM; in test [4], less than 100 nM. Besides, the EC50 in test [3] is less than 100 nM.

In general, IC50 refers to the point on the concentration scale where inhibition reaches its midpoint. What is called EC50 is the concentration giving half of the maximal effect.
